{"source": "ChEMBL document CHEMBL1201862", "about": "“PubChem BioAssay data set” (2004)", "key": {"[1]": {"test": "NIH-3T3 fibroblast cytotoxicity, dose response, cytotoxicity control, cell-based, fluorescence, Alamar Blue, secondary assay (AID 2327);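 also: NIH-3T3 mouse fibroblasts cultured with fluconazole at 8 µg/mL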", "format": "functional"}, "BJ [2]": {"system": "BJ", "test": "cytotoxicity toward BJ-TERT fibroblasts, dose response, cell-based, RAS-independent, luminescence (AID 1933)", "format": "functional", "conditions": "Homo sapiens"}, "BJ [3]": {"system": "BJ", "test": "cells", "format": "functional, cell-based", "conditions": "Homo sapiens"}, "[4]": {"test": "C. albicans growth with fluconazole, confirmation, fluorescence, retest (AID 2467)", "format": "functional, cell-based"}, "BJ [5]": {"system": "BJ", "test": "cytotoxicity toward BJ-TERT-LT-ST fibroblasts, dose response, cell-based, RAS-independent, luminescence (AID 1935);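 also: BJ fibroblasts immortalized with TERT plus LT and ST oncogenes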", "format": "functional", "conditions": "Homo sapiens"}, "[6]": {"test": "cytotoxicity toward DRD oncogenic fibroblasts, dose response, cell-based, non-viral oncogenic, luminescence (AID 1934)", "format": "functional", "conditions": "Homo sapiens"}, "[7]": {"test": "cytotoxicity in HEK-293T cells, dose response, cytotoxicity control for TCR NF-kB inhibitor project, luminescence, T-cell screen hits (AID 489026);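 also: cells exposed to compound about 14 hours before the viability readout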", "format": "functional, cell-based"}, "[8]": {"test": "A cytotoxicity screen of small molecule inhibitors of the PhoP region in Salmonella typhi identified in the primary screen. [Related pubchem assays: 1850, 1864, 1985 ]", "format": "functional"}, "Aminopeptidase N": {"molecular_target": "T1, Aminopeptidase N (Plasmodium falciparum FcB1/Columbia, UniProt O96935)", "T1 sequence (O96935 whole entry)": "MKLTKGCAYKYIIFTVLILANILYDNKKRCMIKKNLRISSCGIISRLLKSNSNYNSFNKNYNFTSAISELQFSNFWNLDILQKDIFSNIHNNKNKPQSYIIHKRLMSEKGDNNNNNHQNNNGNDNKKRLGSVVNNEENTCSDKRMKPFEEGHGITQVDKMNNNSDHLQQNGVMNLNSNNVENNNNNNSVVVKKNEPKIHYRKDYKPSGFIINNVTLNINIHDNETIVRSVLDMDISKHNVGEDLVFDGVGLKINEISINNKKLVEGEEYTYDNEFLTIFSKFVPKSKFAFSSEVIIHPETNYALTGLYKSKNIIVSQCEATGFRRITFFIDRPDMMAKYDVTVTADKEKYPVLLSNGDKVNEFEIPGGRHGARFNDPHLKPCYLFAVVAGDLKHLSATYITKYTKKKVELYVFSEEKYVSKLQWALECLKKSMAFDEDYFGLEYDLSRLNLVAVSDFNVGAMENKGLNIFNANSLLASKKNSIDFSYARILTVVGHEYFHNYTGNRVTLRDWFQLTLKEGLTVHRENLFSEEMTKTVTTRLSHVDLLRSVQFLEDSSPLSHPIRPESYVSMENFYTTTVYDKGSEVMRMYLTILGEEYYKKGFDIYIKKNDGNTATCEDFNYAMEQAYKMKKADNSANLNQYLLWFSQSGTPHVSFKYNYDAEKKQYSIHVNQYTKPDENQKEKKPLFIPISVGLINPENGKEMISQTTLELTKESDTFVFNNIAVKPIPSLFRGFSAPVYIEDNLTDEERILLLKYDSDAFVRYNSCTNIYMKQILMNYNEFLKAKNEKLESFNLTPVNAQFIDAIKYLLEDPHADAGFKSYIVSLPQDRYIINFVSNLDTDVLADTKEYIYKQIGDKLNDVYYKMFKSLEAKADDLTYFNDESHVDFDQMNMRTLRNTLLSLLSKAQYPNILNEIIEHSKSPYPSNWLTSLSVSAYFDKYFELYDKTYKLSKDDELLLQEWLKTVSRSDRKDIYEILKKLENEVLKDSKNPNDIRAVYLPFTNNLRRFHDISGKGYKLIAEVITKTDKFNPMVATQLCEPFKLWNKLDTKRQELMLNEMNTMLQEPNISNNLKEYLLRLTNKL", "test": "P. falciparum M1AAP inhibitors, biochemical, fluorogenic H-Leu-NHMec substrate, 1536-well (AID 1445)", "set-up": "species or system Plasmodium falciparum 3D7, 3D7"}, "[9]": {"molecular_target": "T2, RNA-binding protein pos-1 (Caenorhabditis elegans, UniProt G5EF15)", "T2 sequence (G5EF15 whole entry)": "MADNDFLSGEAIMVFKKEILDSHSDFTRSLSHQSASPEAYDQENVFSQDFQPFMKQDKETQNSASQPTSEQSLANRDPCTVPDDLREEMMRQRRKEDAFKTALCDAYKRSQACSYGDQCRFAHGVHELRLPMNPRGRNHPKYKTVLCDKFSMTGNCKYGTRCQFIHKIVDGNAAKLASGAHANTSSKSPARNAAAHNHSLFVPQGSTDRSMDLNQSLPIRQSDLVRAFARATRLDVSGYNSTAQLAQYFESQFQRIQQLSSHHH", "test": "inhibitors of POS-1/mex-3 RNA binding, dose response, biochemical, fluorescence polarization (AID 1964);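 also: purified POS-1 fused to maltose binding protein made in E. coli; potency of compounds blocking POS-1 binding to fluorescent RNA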"}, "[10]": {"molecular_target": "T3, Zinc finger protein mex-5 (Caenorhabditis elegans, UniProt Q9XUB2)", "T3 sequence (Q9XUB2 whole entry)": "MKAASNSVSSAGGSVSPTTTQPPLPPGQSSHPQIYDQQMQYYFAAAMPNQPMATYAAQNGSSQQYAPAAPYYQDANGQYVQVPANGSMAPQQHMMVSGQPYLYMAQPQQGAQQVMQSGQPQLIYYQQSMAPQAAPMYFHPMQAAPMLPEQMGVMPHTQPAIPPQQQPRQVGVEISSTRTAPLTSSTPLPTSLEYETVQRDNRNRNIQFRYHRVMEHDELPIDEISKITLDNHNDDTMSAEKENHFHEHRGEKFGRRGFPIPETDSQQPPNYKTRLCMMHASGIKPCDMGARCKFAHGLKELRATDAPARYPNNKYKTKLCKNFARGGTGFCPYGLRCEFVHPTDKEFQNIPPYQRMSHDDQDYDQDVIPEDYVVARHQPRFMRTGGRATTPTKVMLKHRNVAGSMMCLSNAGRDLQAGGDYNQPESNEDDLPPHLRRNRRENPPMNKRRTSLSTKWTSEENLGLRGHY", "test": "MEX-5/TCR-2 RNA interaction inhibitors, dose response, biochemical, C. elegans, fluorescence polarization (AID 1960)"}, "Prothrombin": {"molecular_target": "Prothrombin (Homo sapiens, UniProt P00734)", "test": "Thrombin 1536 HTS Dose Response Confirmation. [Related pubchem assays: 1046 (Thrombin 1536 HTS; hits were confirmed in this assay)]", "format": "functional"}, "Cytochrome P450 2C9": {"molecular_target": "Cytochrome P450 2C9 (Homo sapiens, UniProt P11712)", "sequence (P11712 whole entry)": "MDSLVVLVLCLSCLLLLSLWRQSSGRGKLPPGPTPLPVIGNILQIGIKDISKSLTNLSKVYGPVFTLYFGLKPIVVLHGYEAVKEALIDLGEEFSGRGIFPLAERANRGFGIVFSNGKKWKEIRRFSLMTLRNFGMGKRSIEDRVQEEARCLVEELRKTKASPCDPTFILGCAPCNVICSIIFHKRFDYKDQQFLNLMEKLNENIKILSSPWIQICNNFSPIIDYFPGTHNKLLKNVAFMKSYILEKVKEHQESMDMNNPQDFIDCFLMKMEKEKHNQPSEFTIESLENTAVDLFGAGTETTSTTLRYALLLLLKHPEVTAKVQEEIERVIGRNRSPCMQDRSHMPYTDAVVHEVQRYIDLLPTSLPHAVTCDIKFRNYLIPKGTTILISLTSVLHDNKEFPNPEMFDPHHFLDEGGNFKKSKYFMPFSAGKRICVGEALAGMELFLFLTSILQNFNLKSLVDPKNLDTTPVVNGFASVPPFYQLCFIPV"}, "[11]": {"test": "A Cell Based Secondary Assay To Explore Cytotoxicity of Compounds that Sensitize Mycobacterium Tuberculosis to Beta-Lactam Antibiotics.", "format": "functional"}}, "note": "The source made the active and inactive calls.", "data": [{"smiles": "COc1ccc(-[n+]2c(-c3ccccc3)cc(-c3ccc(C)cc3)cc2-c2ccccc2)cc1.[O-][Cl+3]([O-])([O-])[O-]", "values": [{"measurement": "EC50", "setting": "[1]", "result": "7.59 µM (active)"}, {"measurement": "EC50", "setting": "BJ [2]", "result": "3.39 µM (active)"}, {"measurement": "EC50", "setting": "BJ [3]", "result": "5 µM (active)"}, {"measurement": "EC50", "setting": "[4]", "result": "0.037 µM (active)"}, {"measurement": "EC50", "setting": "BJ [5]", "result": "19.8 µM (active)"}, {"measurement": "EC50", "setting": "[6]", "result": "10 µM (inconclusive)"}, {"measurement": "IC50", "setting": "[7]", "result": "> 80 µM (inactive)"}]}, {"smiles": "O=C(O)Cn1c(=O)c2c3c(sc2n(Cc2ccccc2F)c1=O)CCCC3", "values": [{"measurement": "EC50", "setting": "[8]", "result": "> 50 µM (active)"}]}, {"smiles": "O=C1NC(=O)N(CCc2ccccc2)C(=O)/C1=C/NNC(=O)c1ccncc1", "values": [{"measurement": "IC50", "setting": "Aminopeptidase N", "result": "38.4 µM (active)"}, {"measurement": "EC50", "setting": "[9]", "result": "> 300 µM (not active)"}, {"measurement": "EC50", "setting": "[10]", "result": "> 300 µM (not active)"}, {"measurement": "IC50", "setting": "Prothrombin", "result": "> 50 µM (not active)"}]}, {"smiles": "CCOc1cc(C(c2c(C)n[nH]c2O)c2c(C)n[nH]c2O)cc([N+](=O)[O-])c1O", "values": [{"measurement": "EC50", "setting": "[8]", "result": "> 50 µM (active)"}]}, {"smiles": "COc1ccc(OC[C@@H](CO)OC)cc1", "values": [{"measurement": "AC50", "setting": "Cytochrome P450 2C9", "result": "inconclusive"}]}, {"smiles": "COc1ccc2nc(SCC(=O)N3CCCCCC3)c(C#N)cc2c1", "values": [{"measurement": "CC50", "setting": "[11]", "result": "> 40 µM (active)"}]}, {"smiles": "COc1cccc(C(=O)Nc2cccc(SC)c2)c1", "values": [{"measurement": "EC50", "setting": "[8]", "result": "> 50 µM (active)"}]}, {"smiles": "COc1ccc(CNS(=O)(=O)c2cc(-c3cc(C)no3)ccc2C(C)C)cc1", "values": [{"measurement": "IC50", "setting": "[7]", "result": "> 80 µM (inactive)"}]}, {"smiles": "O=C(NCC(c1ccco1)N1CCc2ccccc21)c1ccc([N+](=O)[O-])cc1", "note": "(centres undefined)", "values": [{"measurement": "CC50", "setting": "[11]", "result": "> 40 µM (active)"}]}, {"smiles": "Cc1ccc(Cn2c(C(C)Nc3nc(-c4ccc(Cl)cc4)cs3)nc3cc(C(=O)NCCCO)ccc32)cc1", "note": "(centres undefined)", "values": [{"measurement": "CC50", "setting": "[11]", "result": "> 40 µM (active)"}]}]}
